According to patent publication US20140343017A1, “PYRROLE COMPOUND” (Kabushiki Kaisha Yakult Honsha, priority 2012, published 2014):

System: PTX-resistant H460/PV2-7 cells
Assay: Inhibitory effect on growth of PTX-resistant tumor cell line highly expressing TUBB3 (in vitro)
Format: cell-based, human
Details: for Resistance rate: H460/PV2-7 versus parent line H460; for IC50: Homo sapiens, NCI-H460, H460/PV2-7 cells, 96 hours culture, WST-8

| Compound | Resistance rate | IC50 [nM] | Resistance rate (listed as PTX) |
| --- | --- | --- | --- |
| CO[C@H]1C(=O)[C@]2(C)[C@@H](OC)C[C@H]3OC[C@@]3(OC(C)=O)[C@H]2[C@H](OC(=O)c2ccccc2)[C@]2(O)C[C@H](OC(=O)[C@H](O)[C@@H](NC(=O)OC(C)(C)C)c3ccccc3)C(C)=C1C2(C)C [Cabazitaxel, cabazitaxel] | 3.2 | 4 | – |
| Cc1c(-c2nnn(CCO)n2)[nH]c(CO)c1C(=O)c1cccc(Br)c1 [Compound 121, (3-bromophenyl)(5-(2-(2-hydroxyethyl)-2H-tetrazol-5-yl)-2-(hydroxymethyl)-4-methyl-1H-pyrrol-3-yl)methanone] | 0.27 | 20.6 | – |
| Cc1c(-c2nnn(CCO)n2)[nH]c(C(C)O)c1C(=O)c1cccc(Br)c1 (stereo not shown) [Compound 123, (3-bromophenyl)(2-(1-hydroxyethyl)-5-(2-(2-hydroxyethyl)-2H-tetrazol-5-yl)-4-methyl-1H-pyrrol-3-yl)methanone] | 0.31 | 21 | – |
| CNC(=O)c1[nH]c(-c2nnn(CCO)n2)c(C)c1C(=O)c1cccc(Br)c1 [Compound 142, 3-(3-bromobenzoyl)-5-(2-(2-hydroxyethyl)-2H-tetrazol-5-yl)-N,4-dimethyl-1H-pyrrole-2-carboxamide] | 0.29 | 108 | – |
| CC(=O)O[C@@]12CO[C@@H]1C[C@H](O)[C@@]1(C)C(=O)[C@H](O)C3=C(C)[C@@H](OC(=O)[C@H](O)[C@@H](NC(=O)OC(C)(C)C)c4ccccc4)C[C@@](O)([C@@H](OC(=O)c4ccccc4)[C@H]21)C3(C)C [Docetaxel, docetaxel] | 2.6 | 4 | – |
| CC(=O)O[C@H]1C(=O)[C@@]2(C)[C@H]([C@H](OC(=O)c3ccccc3)[C@]3(O)C[C@H](OC(=O)[C@H](O)[C@@H](NC(=O)c4ccccc4)c4ccccc4)C(C)=C1C3(C)C)[C@]1(OC(C)=O)CO[C@@H]1C[C@@H]2O [Paclitaxel, paclitaxel, reference compound] | 4.6 | 16.5 | approximately 4.6 |
